Reference: article PMC5514153, “Targeting PTPRZ inhibits stem cell-like properties and tumorigenicity in glioblastoma cells” (Scientific Reports, 2017)

Target: T1, hPTPRS (Homo sapiens, UniProt Q13332)
T1 construct: The ICRs of PTPRG, PTPRS, and PTPRB and the catalytic domains of PTPN1 and PTPN6; GST (N); made in house; host or cells: Escherichia coli BL21
T1 sequence (Q13332 1304-1948 limits assumed): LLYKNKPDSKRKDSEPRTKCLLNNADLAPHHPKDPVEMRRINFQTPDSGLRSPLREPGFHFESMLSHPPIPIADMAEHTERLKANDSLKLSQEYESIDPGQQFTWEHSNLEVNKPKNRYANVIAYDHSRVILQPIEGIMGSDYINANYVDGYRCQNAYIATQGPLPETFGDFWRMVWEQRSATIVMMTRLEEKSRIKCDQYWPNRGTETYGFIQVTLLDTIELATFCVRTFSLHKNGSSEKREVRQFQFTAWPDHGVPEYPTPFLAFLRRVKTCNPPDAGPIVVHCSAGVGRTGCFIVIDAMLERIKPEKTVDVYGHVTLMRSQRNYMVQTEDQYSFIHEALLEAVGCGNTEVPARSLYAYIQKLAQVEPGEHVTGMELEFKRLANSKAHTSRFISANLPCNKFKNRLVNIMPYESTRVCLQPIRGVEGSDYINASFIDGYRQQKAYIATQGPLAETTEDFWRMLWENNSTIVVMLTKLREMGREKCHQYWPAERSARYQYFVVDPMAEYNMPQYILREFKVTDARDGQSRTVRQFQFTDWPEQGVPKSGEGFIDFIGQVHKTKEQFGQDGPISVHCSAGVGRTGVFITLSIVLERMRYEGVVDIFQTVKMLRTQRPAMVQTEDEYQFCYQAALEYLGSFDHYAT
Experiment: In vitro PTPase assay (DiFMUP), PTPRS
Type: biochemical
Conditions: 60-min preincubation
Experimental: Figure 4 NAZ2329, an allosteric inhibitor of R5 RPTP subfamily members. (A) Structure of NAZ2329. (B) Effect of preincubation of NAZ2329 on its inhibitory activity against PTPRZ. Recombinant human PTPRZ1 enzyme (the whole intracellular region) was premixed with NAZ2329 for the indicated times and followed by addition of a fluorogenic DiFMUP (non-specific PTP substrate, 6,8-difluoro-4-methylumbiliferyl phosphate) to measure PTP inhibitory activity. (C) Time dependence. The PTPRZ1 enzyme was added to the inhibitor–substrate mixture, and the inhibitory activity was determined at each time point relative to the vehicle control. (D) Reversibility of inhibition. […] The mixture was then 20-fold diluted, and recovered PTP activity was expressed as the relative activity compared with the vehicle-treated enzyme. […] PTPRZ1 enzymes were preincubated with NAZ2329 for 60 min, and the PTP activity was measured using DiFMUP. […]
Recombinant proteins corresponding to the entire intracellular regions (ICRs) of PTPRZ1, PTPRA, and PTPRM were expressed using a baculovirus-silkworm expression system, and purified as described. The ICRs of PTPRG, PTPRS, and PTPRB and the catalytic domains of PTPN1 and PTPN6 were expressed as glutathione-S-transferase (GST) fusion proteins from each pGEX plasmid in Escherichia coli strain BL21 (ref. [6]). […]

CCOc1ccc(C(F)(F)F)cc1CSc1ccsc1C(=O)NS(=O)(=O)c1ccccc1 [NAZ2329]
IC50: 23.7 µM
